According to ChEMBL document CHEMBL5223091, “Targeting the Mitotic Kinesin KIF18A in Chromosomally Unstable Cancers: Hit Optimization Toward an In Vivo Chemical Probe” (J Med Chem, 2022):
In brackets after ≈: the same amount, converted by molar mass.

What was measured:
[1] = molecular target: T1, Kinesin-like protein KIF11 (Homo sapiens, UniProt P52732); test: Inhibition of recombinant GST-tagged human Eg5 assessed as inhibition of microtubule-stimulated ATPase activity preincubated for 30 mins followed by ATP addition and further incubated for 15 mins by ADP-Glo reagent based assay
T1 sequence (P52732 whole entry): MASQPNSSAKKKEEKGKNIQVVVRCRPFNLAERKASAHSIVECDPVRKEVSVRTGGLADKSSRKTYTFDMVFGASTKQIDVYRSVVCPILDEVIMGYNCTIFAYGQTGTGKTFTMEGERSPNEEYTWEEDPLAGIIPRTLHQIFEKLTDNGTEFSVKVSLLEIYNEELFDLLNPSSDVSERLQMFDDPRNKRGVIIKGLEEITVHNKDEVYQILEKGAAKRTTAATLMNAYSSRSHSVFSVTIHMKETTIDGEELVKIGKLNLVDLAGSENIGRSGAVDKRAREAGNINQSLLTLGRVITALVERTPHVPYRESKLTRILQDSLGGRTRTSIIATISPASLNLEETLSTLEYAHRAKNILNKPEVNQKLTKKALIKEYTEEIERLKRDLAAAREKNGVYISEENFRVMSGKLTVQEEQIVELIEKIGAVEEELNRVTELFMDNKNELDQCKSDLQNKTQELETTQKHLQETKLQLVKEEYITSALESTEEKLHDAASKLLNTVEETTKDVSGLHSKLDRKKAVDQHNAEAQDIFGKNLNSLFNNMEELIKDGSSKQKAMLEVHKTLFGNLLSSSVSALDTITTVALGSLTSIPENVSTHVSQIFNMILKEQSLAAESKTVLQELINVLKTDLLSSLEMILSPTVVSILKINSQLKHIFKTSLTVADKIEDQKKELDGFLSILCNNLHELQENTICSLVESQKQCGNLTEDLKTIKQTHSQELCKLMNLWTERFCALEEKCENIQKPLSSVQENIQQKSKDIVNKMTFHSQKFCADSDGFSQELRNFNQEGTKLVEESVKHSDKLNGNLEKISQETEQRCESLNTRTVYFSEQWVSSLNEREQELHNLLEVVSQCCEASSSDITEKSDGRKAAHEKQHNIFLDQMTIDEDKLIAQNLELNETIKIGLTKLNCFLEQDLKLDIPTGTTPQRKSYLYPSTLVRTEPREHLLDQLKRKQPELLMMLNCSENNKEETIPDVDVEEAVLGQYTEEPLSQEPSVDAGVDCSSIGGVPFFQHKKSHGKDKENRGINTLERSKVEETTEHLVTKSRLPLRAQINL

MDA-MB-157 = test: Induction of mitotic arrest in TP53 mutant human MDA-MB-157 cells assessed as multipolar spindle arrays by measuring pericentriolar material incubated for 24 hrs by mitotic index assay; type: functional, cell-based; settings: MDA-MB-157, 24 h
OVCAR-3 [2] = test: Induction of mitotic arrest in human OVCAR-3 cells assessed as p-histone H3 incubated for 24 hrs by mitotic - imaging assay; type: functional, cell-based; settings: OVCAR-3, 24 h
OVCAR-3 [3] = test: Antiproliferative activity against human OVCAR-3 cells by nuclear count assay; type: functional, cell-based
[4] = Clearance in CD-1 mouse at 1 mg/kg, iv and 10 mg/kg, po; type: ADME, organism-based; settings: in vivo
[5] = Half life in CD-1 mouse at 1 mg/kg, iv and 10 mg/kg, po; type: ADME, organism-based; settings: in vivo
[6] = Plasma concentration in CD-1 mouse at 100 mg/kg, po measured after 24 hrs; type: ADME, organism-based
[7] = Plasma concentration in CD-1 mouse xenografted with human OVCAR-3 cells at 100 mg/kg, po measured after 8 hrs; type: ADME, organism-based
[8] = Drug uptake in CD-1 mouse xenografted with human OVCAR-3 cells measured in tumor at 100 mg/kg, po measured after 8 hrs; type: ADME, organism-based, Neoplasm; settings: read-out: Drug uptake
OVCAR-3 [9] = test: Antimitotic activity in human OVCAR-3 cells xenografted in CD-1 mouse assessed as time prolongation of mitotic arrest per day at 100 mg/kg, po; type: functional
[10] = molecular target: T2, Kinesin-like protein KIF18A (Mus musculus, UniProt Q91WD7); test: Inhibition of recombinant His-tagged mouse KIF18A expressed in Trichoplusia ni insect cells assessed as inhibition of microtubule-stimulated ATPase activity preincubated for 30 mins followed by ATP addition and further incubated for 15 mins by ADP-Glo reagent based assay; set-up: species or system Insect cell
T2 sequence (Q91WD7 whole entry): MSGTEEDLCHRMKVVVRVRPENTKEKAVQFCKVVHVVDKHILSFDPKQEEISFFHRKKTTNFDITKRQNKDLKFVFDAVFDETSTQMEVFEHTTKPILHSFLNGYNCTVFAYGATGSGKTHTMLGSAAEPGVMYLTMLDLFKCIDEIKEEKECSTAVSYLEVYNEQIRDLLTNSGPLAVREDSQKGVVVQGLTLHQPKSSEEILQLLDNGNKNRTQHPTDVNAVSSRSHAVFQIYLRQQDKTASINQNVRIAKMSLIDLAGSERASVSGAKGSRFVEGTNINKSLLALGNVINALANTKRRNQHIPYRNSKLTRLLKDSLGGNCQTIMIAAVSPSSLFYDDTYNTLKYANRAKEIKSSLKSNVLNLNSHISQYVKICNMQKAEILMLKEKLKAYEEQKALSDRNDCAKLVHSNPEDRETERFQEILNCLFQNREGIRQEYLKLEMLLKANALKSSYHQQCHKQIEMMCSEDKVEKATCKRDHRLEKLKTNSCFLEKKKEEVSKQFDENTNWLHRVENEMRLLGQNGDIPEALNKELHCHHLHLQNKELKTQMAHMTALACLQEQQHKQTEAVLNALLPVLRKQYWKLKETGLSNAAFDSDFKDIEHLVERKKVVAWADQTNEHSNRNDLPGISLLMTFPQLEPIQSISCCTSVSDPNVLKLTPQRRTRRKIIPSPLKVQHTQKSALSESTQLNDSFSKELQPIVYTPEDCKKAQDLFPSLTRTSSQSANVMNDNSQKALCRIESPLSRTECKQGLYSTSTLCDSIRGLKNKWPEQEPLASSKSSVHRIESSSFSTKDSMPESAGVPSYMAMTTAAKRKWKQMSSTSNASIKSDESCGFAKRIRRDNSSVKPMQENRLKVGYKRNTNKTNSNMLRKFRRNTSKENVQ

[11] = Kinetic solubility of compound in FaSSIF; type: ADME; settings: read-out: Kinetic_solubility
[12] = AUC (0 to 24 hrs) in CD-1 mouse xenografted with human OVCAR-3 cells at 100 mg/kg, po by LC-MS/MS analysis; type: ADME, organism-based; set-up: dose 100 mg/kg, route po; settings: in vivo
[13] = Plasma concentration in CD-1 mouse xenografted with human OVCAR-3 cells at 100 mg/kg, po measured upto 24 hrs by LC-MS/MS analysis; type: ADME, organism-based
[14] = Unbound fraction in CD-1 mouse plasma xenografted with human OVCAR-3 cells at 100 mg/kg, po by LC-MS/MS analysis; type: ADME, organism-based
[15] = Cmax in CD-1 mouse xenografted with human OVCAR-3 cells at 100 mg/kg, ip by LC-MS/MS analysis; type: ADME, organism-based; set-up: dose 100 mg/kg, route ip; settings: in vivo
[16] = Unbound fraction in CD-1 mouse plasma xenografted with human OVCAR-3 cells at 100 mg/kg, ip by LC-MS/MS analysis; type: ADME, organism-based

**Q.** Which results are given for `CC(C)(C)NS(=O)(=O)c1cccc(NC(=O)c2ncc(NS(C)(=O)=O)nc2N2CCC3(CC2)CC3)n1`?
**A.** IC50 [1]: > 100 µM; IC50 (MDA-MB-157): 0.032 µM; EC50 (OVCAR-3 [2]): 0.032 µM; EC50 (OVCAR-3 [3]): 0.032 µM; CL [4]: 1.4 L/h/kg; half-life [5]: 1.7 h; concentration at 24 h [6]: 0.03 µM; concentration at 8 h [7]: 5.7 µM; concentration at 8 h [8]: 17.5 µM; Time (OVCAR-3 [9]): >=12 hr; IC50 [10]: 0.077 µM; solubility kinetic [11]: 209 µM (≈ 112 µg/mL); AUC(0-t) [12]: 25.7 µM·h; concentration at 24 h [13]: 0.016 µM; fraction unbound [14]: 0.022; Cmax [15]: 22.6 µM; fraction unbound [16]: 0.022
